From the Kinase Knowledgebase extract (Sharma et al. 2016)

target: EGFR (human) (UniProt P00533); conditions: A431
Sequence (P00533 whole entry, looked up): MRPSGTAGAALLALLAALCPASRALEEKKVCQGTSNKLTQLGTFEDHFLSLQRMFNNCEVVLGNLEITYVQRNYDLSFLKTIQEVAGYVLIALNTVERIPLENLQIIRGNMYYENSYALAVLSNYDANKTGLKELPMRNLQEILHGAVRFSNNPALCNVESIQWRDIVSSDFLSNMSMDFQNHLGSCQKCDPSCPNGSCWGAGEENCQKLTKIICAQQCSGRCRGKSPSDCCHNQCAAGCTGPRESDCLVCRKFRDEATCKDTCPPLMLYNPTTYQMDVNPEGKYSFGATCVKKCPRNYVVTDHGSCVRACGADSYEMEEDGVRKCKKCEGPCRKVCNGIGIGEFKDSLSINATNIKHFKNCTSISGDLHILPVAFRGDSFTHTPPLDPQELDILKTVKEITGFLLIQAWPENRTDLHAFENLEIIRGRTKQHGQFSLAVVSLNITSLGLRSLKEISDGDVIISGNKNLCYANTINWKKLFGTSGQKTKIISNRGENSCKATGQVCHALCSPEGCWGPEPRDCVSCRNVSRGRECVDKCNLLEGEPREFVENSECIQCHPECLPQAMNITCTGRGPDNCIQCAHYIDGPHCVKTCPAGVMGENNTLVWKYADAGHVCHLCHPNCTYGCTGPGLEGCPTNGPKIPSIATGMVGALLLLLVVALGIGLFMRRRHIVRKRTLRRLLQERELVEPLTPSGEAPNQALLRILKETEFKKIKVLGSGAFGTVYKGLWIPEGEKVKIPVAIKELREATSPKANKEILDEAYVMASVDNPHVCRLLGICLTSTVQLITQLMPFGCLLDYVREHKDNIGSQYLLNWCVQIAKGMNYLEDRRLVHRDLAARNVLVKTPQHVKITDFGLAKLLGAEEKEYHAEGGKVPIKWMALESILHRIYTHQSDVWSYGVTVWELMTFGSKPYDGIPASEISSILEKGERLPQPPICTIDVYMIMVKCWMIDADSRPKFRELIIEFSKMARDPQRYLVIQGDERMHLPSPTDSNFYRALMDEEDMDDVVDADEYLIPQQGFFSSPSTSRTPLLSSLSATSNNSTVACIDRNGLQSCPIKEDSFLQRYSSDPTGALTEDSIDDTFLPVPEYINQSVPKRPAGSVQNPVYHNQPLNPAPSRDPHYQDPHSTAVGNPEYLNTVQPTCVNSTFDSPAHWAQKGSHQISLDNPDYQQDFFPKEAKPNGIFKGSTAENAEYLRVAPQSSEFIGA

Compound | IC50 [µM]
CC(C)c1cc(CC(C#N)C(N)=O)cc(C(C)C)c1O (stereo unspecified) | 9.8
CCOc1cc(/C=C(\C#N)C(N)=O)cc(CSc2ccc(O)cc2)c1O | 2.8
CC(C)c1cc(/C=C(\C#N)C(N)=O)cc(C(C)C)c1O | 1.1
CCOc1cc(/C=C(\C#N)C(N)=O)cc(CSc2ccccc2)c1O | 0.37
CCOc1cc(/C=C(\C#N)C(N)=O)cc(CSc2ccc(C)cc2)c1O | 2.2
CC(C)(C)c1cc(/C=C(\C#N)C(N)=O)cc(C(C)(C)C)c1O | 46
CCOc1cc(/C=C(\C#N)C(N)=O)cc(CSc2c(F)c(F)c(F)c(F)c2F)c1O | 3
CCOc1cc(/C=C(\C#N)C(N)=O)cc(CSc2cccc(OC)c2)c1O | 4
N#C/C(=C\c1cc(Cc2ccccc2)c(O)c(Cc2ccccc2)c1)C(N)=O | 0.6

Next, values leading:

IC50 [µM] | Compound
0.53 | COc1cc(/C=C(\C#N)C(N)=O)cc(CSc2ccccc2)c1O
0.75 | N#C/C(=C\c1cc(CSc2ccccc2)c(O)c(OCc2ccccc2)c1)C(N)=O
0.37 | N#C/C(=C\c1cc(-c2ccccc2)c(O)c(-c2ccccc2)c1)C(N)=O

same assay, conditions: A431; concentration not given here

Compound | inhibition [%]
CCOc1cc(/C=C(\C#N)C(N)=O)cc(CSc2ccc(O)cc2)c1O | 30
CCOc1cc(/C=C(\C#N)C(N)=O)cc(CSc2ccccc2)c1OC(C)=O | 24
CCOc1cc(/C=C(\C#N)C(N)=O)cc(CSc2ccccc2OC)c1O | 0
CCOc1cc(/C=C(\C#N)C(N)=O)cc(CSc2cccc(Cl)c2)c1O | 0
CCOc1cc(/C=C(\C#N)C(N)=O)cc(CSc2ccc(Br)cc2)c1O | 0
CCOc1cc(/C=C(\C#N)C(N)=O)cc(CSc2ccc(C)cc2)c1O | 47
CCOc1cc(/C=C(\C#N)C(N)=O)cc(CSc2c(F)c(F)c(F)c(F)c2F)c1O | 41
CCOc1cc(/C=C(\C#N)C(N)=O)cc(CSc2ccc([N+](=O)[O-])cc2)c1O | 0
CCOc1cc(/C=C(\C#N)C(N)=O)cc(CSc2ccc(Cl)c(Cl)c2)c1O | 0
CCOc1cc(/C=C(\C#N)C(N)=O)cc(CSc2cccc(OC)c2)c1O | 17

More lines, now with the values ahead:

inhibition [%] | Compound
20 | CCOc1cc(/C=C(\C#N)C(N)=O)cc(CSc2ccccc2)c1OC(=O)c1ccccc1
18 | CCOc1cc(/C=C(\C#N)C(N)=O)cc(CSc2ccccc2)c1OC
0 | CCOc1cc(/C=C(\C#N)C(N)=O)cc(CSc2ccc(C(C)(C)C)cc2)c1O
18 | CCOc1cc(/C=C(\C#N)C(N)=O)cc(COc2ccccc2)c1O
